These are literature values, as cited in patent US12258594B2, “Cas proteins with reduced immunogenicity and methods of screening thereof” (THE BROAD INSTITUTE, INC., priority 2018, dated 2025).

For the first series, the system named is Factor VII. The note with it: LNP siRNA systems containing the lipid; hepatocytes in vivo.
On to `CCCCC/C=C\C/C=C\CCCCCCCC(=O)OCC(CN(C)C)OC(=O)CCCCCCC/C=C\C/C=C\CCCCC` (stereo not shown) [DLinDAP, 1,2-dilineoyl-3-dimethylammonium-propane], for which the “gene silencing potencies, series (rank order)” value (shortened to “gene silencing potencies”) is “DLinKC2-DMA>DLinKDMA>DLinDMA>>DLinDAP”.

On to `CCCCC/C=C\C/C=C\CCCCCCCCOCC(CN(C)C)OCCCCCCCC/C=C\C/C=C\CCCCC` (stereo not shown) [DLinDMA, 1,2-dilinoleyloxy-3-N,N-dimethylaminopropane], for which the “gene silencing potencies” value is given as “DLinKC2-DMA>DLinKDMA>DLinDMA>>DLinDAP”.

`CCCCC/C=C\C/C=C\CCCCCCCCC1(CCCCCCCC/C=C\C/C=C\CCCCC)OCC(CCN(C)C)O1` (stereo not shown) [DLinKC2-DMA, 1,2-dilinoleyl-4-(2-dimethylaminoethyl)-[1,3]-dioxolane]: the “gene silencing potencies” value is “DLinKC2-DMA>DLinKDMA>DLinDMA>>DLinDAP”.

As for “1,2-dilinoleyloxy-keto-N,N-dimethyl-3-aminopropane [DLinKDMA]”, the “gene silencing potencies” value was “DLinKC2-DMA>DLinKDMA>DLinDMA>>DLinDAP”.

In another series the test system is dystrophin gene exon 51. The note with it: across 48 weeks.
On to eteplirsen, for which the “average dystrophin positive fibers compared to baseline” value is recorded as 47%.

The test system of a further series is target DNA. The note with it: AsCpf1 mutants.
Regarding D908A: D908A mutant of AsCpf1, the DNA cleavage activity result is given as “almost no activity”.

Turning to W382A: W382A mutant of AsCpf1, the DNA cleavage activity result is “reduced activity”.

On to K548A: K548A mutant of AsCpf1, for which the DNA cleavage activity result was “reduced activities”.

Regarding R192A: R192A mutant of AsCpf1, the DNA cleavage activity result was “reduced activities”.

On to M604A: M604A mutant of AsCpf1, for which the DNA cleavage activity entry is recorded as “reduced activities”.

On to D1235A: D1235A mutant of AsCpf1, for which the DNA cleavage activity entry is on record as “reduced activity”.

Take K607A: K607A mutant of AsCpf1: the DNA cleavage activity result is given as “almost no activity”.

In the case of R1226A: R1226A mutant of AsCpf1, the DNA cleavage activity entry is on record as “almost no activity”.

As for 51228A: mutant of Ser1228 of AsCpf1, the DNA cleavage activity result was “comparable to that of wild-type AsCpf1”.

Turning to R176A: R176A mutant of AsCpf1, the DNA cleavage activity entry was “reduced activities”.

Consider G783P: G783P mutant of AsCpf1, for which the DNA cleavage activity entry is reported as “reduced activities”.

Turning to E993A: E993A mutant of AsCpf1, the DNA cleavage activity result is “almost no activity”.

As to D1263A: D1263A mutant of AsCpf1, the DNA cleavage activity entry is reported as “significantly reduced activity”.

R951A: R951A mutant of AsCpf1: the DNA cleavage activity result was “reduced activities”.

Still in this series, the particulars now being: AsCpf1 mutants, target and non-target strand.
Regarding R1226A: R1226A mutant of AsCpf1, the DNA strand cleaved entry was “acts as a nickase that cleaves the non-target DNA strand, but not the target strand”.

A further series concerns target sites with PAM. The note with it: AsCpf1 and variants.
With “S542R/K607R: AsCpf1 variant with the mutations S542R/K607R”, the “PAM of target sites that can be cleaved” value is “TYCV/CCCC”.

With AsCpf1: Acidaminococcus sp. BV3L6 Cpf1, the “PAM of target sites that can be cleaved” value is on record as “TTTV”.

“S542R/K548V/N552R: AsCpf1 variant with the mutations S542R/K548V/N552R”: the “PAM of target sites that can be cleaved” value is recorded as “TATV”.

Still in this series, the particulars now being: in vitro and in human cells.
As to “S542R/K607R: AsCpf1 variant with the mutations S542R/K607R”, the “activities at the altered PAMs” value is on record as “enhanced activities”.

Regarding “S542R/K548V/N552R: AsCpf1 variant with the mutations S542R/K548V/N552R”, the “activities at the altered PAMs” value is reported as “enhanced activities”.
